ChEMBL document CHEMBL6182934, “Photo-clenbuterol: Optical Control of β2-Adrenergic Receptor Signaling by Photoswitchable Ligand Efficacy” (J Med Chem, 2025)

Assay: Photothermal stability of compound in HBSS buffer assessed as thermal relaxation half life measured after pre-illumination of compound to reach cis-isomer
Type: physicochemical

SMILES	half-life
CC(C)(C)NCC(O)c1cc(Cl)c(/N=N/c2ccccc2)c(C#N)c1 (racemic)	11 days
CC(C)(C)NCC(O)c1cc(Cl)c(/N=N/c2c(Cl)cccc2Cl)c(Cl)c1 (racemic)	26 days

Next, values leading:

half-life	SMILES
112 days	CC(C)(C)NCC(O)c1cc(Cl)c(/N=N/c2ccccc2)c(Cl)c1 (racemic)
38 days	CC(C)(C)NCC(O)c1ccc(/N=N/c2ccccc2)c(Cl)c1 (racemic)
29 days	CC(C)(C)NCC(O)c1ccc(/N=N/c2ccccc2)cc1 (racemic)
